Results on 17 compounds are retold here after ChEMBL document CHEMBL5096217, “Design, synthesis and biological evaluation of novel 4-aminopiperidine derivatives as SMO/ERK dual inhibitors” (Bioorg Med Chem, 2022).

pIC50: −log10 of the molar value.

The target in one experiment is Protein smoothened (Mus musculus, UniProt P56726). As to the kind of experiment: Inhibition of SMO in mouse 3T3/HH FlashII-7 cells incubated for 36 hrs in presence of SHH by Gli-luciferase reporter assay. The class given is cell-based.
Experiment [1] has as its target T1, Mitogen-activated protein kinase 1 (Homo sapiens, UniProt P28482). Kind of experiment: Inhibition of ERK2 (unknown origin) using kinase substrate 8 at 100 nM incubated for 40 mins in presence of ATP by mobility shift assay.
Experiment [2] concerns the target Protein smoothened (Mus musculus) (UniProt P56726). Kind of experiment: Inhibition of SMO in mouse 3T3/HH FlashII-7 cells at 100 nM incubated for 36 hrs in presence of SHH by Gli-luciferase reporter assay. The class given is cell-based.
Experiment [3] deals with T1, Mitogen-activated protein kinase 1. Kind of experiment: Inhibition of ERK2 (unknown origin) using kinase substrate 8 incubated for 40 mins in presence of ATP by mobility shift assay.
Experiment [4] can be described thus: Antiproliferative activity against human RBE cells overexpressing Hh/ERK pathway assessed as inhibition of cell growth incubated for 96 hrs by CCK8 assay relative to SCH772984. The class given is functional.
A short description of experiment [5]: Antiproliferative activity against human RBE cells overexpressing Hh/ERK pathway assessed as inhibition of cell growth incubated for 96 hrs by CCK8 assay. The class given is functional, cell-based.

Sequence of Protein smoothened (P56726 whole entry): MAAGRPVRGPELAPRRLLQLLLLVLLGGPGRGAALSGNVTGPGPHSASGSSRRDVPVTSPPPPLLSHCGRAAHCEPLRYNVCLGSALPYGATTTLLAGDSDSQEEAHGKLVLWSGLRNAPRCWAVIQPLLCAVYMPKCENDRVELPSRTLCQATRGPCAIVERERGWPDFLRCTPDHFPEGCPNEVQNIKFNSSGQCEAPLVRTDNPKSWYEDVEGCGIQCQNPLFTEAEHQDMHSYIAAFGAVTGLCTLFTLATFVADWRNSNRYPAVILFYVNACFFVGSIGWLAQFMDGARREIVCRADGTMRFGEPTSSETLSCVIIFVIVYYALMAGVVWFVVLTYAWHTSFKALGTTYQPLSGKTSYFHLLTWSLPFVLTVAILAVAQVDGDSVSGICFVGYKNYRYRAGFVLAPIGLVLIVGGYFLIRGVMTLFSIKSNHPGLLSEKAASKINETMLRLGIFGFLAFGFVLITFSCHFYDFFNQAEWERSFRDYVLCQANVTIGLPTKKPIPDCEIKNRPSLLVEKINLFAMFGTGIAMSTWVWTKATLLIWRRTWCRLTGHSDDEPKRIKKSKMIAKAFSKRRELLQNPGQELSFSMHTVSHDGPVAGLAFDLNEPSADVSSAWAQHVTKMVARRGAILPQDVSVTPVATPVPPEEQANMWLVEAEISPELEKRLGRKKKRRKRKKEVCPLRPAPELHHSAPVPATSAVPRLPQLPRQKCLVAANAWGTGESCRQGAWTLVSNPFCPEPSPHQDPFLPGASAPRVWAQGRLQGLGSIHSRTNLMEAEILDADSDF
Sequence of Protein smoothened (Mus musculus) (P56726 whole entry): as above
T1 sequence (P28482 whole entry): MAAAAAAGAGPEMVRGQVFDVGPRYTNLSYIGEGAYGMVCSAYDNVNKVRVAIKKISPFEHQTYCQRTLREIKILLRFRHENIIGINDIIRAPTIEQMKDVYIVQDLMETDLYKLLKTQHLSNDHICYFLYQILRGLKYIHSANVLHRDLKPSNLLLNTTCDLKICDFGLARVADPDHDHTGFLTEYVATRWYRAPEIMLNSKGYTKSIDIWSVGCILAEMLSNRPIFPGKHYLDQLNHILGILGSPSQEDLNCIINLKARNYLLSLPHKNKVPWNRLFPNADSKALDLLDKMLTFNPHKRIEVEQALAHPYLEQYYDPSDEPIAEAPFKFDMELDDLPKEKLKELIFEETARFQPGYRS

For the compound `Cc1c(-c2ccnn2C)nnc(N2CCC(NC(=O)Nc3ccc(Nc4nc(NC5CCOCC5)ncc4Cl)cc3)CC2)c1C`, on Protein smoothened, the negative-log IC50 (pIC50) was 7.19. Also, in experiment [1], the inhibition worked out at 36.9%.

Consider `Cc1c(-c2ccnn2C)nnc(N2CCC(NC(=O)Nc3ccc(Oc4nc(NC5CCOCC5)ncc4C(F)(F)F)cc3)CC2)c1C`, for which the pIC50 on Protein smoothened was 6.72. In experiment [1], the inhibition stood at 85%.

On to `Cc1c(-c2ccnn2C)nnc(N2CCC(NC(=O)Nc3ccc(Oc4nc(Nc5cnn(C)c5)ncc4Cl)cc3)CC2)c1C`, for which, on Protein smoothened, the pIC50 is 7.75. Besides, the inhibition in experiment [1] was determined as 46%.

As for `Cc1c(-c2ccnn2C)nnc(N2CCC(NC(=O)Nc3ccc(Oc4ccnc(NC5CCOCC5)n4)cc3)CC2)c1C`, the inhibition in experiment [2] was determined as 90.4%. Further, the negative logarithm of the IC50 (pIC50) in experiment [3] is 5.88.

As to `Cc1cnc(NC2CCOCC2)nc1Oc1ccc(NC(=O)NC2CCN(c3nnc(-c4ccnn4C)c(C)c3C)CC2)cc1`, the negative logarithm of the IC50 (pIC50) at Protein smoothened is 6.82. Moreover, in experiment [1], the inhibition was determined as 60.7%.

Take `Cc1c(-c2ccnn2C)nnc(N2CCC(NC(=O)Nc3ccc(Sc4nc(NC5CCOCC5)ncc4Cl)cc3)CC2)c1C`: the pIC50 was 7.75 on Protein smoothened and 5.66 in experiment [5]. The inhibition in experiment [1] is 91.2%. Moreover, the “fold change (FC)” value in experiment [4] is reported as 1.33.

`Cc1c(-c2ccnn2C)nnc(N2CCC(NC(=O)Nc3ccc(Oc4nc(Nc5ccn(C)n5)ncc4Cl)cc3)CC2)c1C`: the inhibition in experiment [1] stood at 6.6%.

As to `Cc1c(-c2ccnn2C)nnc(N2CCC(NC(=O)Nc3ccc(Oc4nc(Nc5ccnn5C)ncc4Cl)cc3)CC2)c1C`, the inhibition in experiment [1] came out at 1.1%.

For `Cc1c(-c2ccnn2C)nnc(N2CCC(NC(=O)c3ccc(NC(=O)c4ccnc(NC5CCOCC5)n4)cc3C(F)(F)F)CC2)c1C`, the inhibition in experiment [2] was determined as 68.2%. For the same compound, the pIC50 in experiment [3] is 5.48.

For `CN(C(=O)c1ccc(F)cc1C(F)(F)F)C1CCN(c2nnc(-c3ccnn3C)c3ccccc23)CC1` [TALADEGIB], the pIC50 is 8.93 on Protein smoothened and < 4.30 in experiment [5].

Take `Cc1c(-c2ccnn2C)nnc(N2CCC(NC(=O)Nc3ccc(Oc4nc(NC(C)C)ncc4Cl)cc3)CC2)c1C`: the inhibition in experiment [1] was 5.6%.

Take `Cn1cc(-c2ccc(N3CCC(NC(=O)Nc4ccc(Oc5nc(NC6CCOCC6)ncc5Cl)cc4)CC3)nn2)cn1`: the pIC50 on Protein smoothened is < 6.00; in experiment [3], 6.79.

Take `Cn1nccc1-c1ccc(N2CCC(NC(=O)Nc3ccc(Oc4nc(NC5CCOCC5)ncc4Cl)cc3)CC2)nn1`: the inhibition in experiment [2] was 68.5%; in experiment [1], 46.4%.

Consider `Cc1c(-c2cnn(C)c2)nnc(N2CCC(NC(=O)Nc3ccc(Oc4nc(NC5CCOCC5)ncc4Cl)cc3)CC2)c1C`, for which the negative-log IC50 (pIC50) was 6.39 at Protein smoothened and 7.39 in experiment [3].

With `Cc1c(-c2ccnn2C)nnc(N2CCC(NC(=O)Nc3ccc(Sc4nc(NC5CCOCC5)ncc4C(F)(F)F)cc3)CC2)c1C`, the negative logarithm of the IC50 (pIC50) at Protein smoothened is 6.81; in experiment [5], 5.84. Further, the inhibition in experiment [1] came to 84.2%. In addition, in experiment [4], the “fold change (FC)” value is on record as 0.89.

Turning to `O=C(Nc1ccc2[nH]nc(-c3ccncc3)c2c1)[C@@H]1CCN(CC(=O)N2CCN(c3ccc(-c4ncccn4)cc3)CC2)C1`, in experiment [5], the pIC50 was 5.79.

Take `Cc1c(-c2ccnn2C)nnc(N2CCC(NC(=O)Nc3ccc(Oc4nc(NC5CCOCC5)ncc4Cl)cc3)CC2)c1C`: the inhibition in experiment [2] was determined as 89.9%; in experiment [1], 80.9%. The “fold change (FC)” value in experiment [4] amounted to 7.59. Besides, the pIC50 in experiment [5] was 4.91.
